{"source": "patent EP0406122A1", "about": "“Process for obtaining a native, wild-type human oestrogen receptor and its applications” (ASSOCIATION POUR LE DEVELOPPEMENT DE LA RECHERCHE EN …, priority 1989, dated 1991)", "target": "T1, hER Gly-400 (HEGO) (Homo sapiens, UniProt P03372)", "T1 construct": "expressed in transfected cells; host or cells: HeLa", "T1 sequence (P03372 1-595)": "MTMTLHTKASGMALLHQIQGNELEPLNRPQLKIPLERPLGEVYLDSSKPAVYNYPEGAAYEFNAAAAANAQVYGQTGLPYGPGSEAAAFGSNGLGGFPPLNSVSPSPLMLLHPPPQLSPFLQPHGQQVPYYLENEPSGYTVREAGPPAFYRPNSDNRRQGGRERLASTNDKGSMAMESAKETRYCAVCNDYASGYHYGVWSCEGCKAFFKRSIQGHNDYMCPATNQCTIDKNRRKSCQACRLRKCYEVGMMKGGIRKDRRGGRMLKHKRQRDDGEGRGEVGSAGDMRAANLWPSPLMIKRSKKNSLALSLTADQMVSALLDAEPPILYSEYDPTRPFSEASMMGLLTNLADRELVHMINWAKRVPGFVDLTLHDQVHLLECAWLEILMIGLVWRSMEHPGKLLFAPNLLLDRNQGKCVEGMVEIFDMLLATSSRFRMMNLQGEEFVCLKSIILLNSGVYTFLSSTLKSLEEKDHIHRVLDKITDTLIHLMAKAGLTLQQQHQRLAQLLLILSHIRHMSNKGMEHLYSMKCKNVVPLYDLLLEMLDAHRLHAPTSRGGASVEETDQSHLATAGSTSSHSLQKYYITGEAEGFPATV", "assay": "transcription activation, vit-tk-CAT reporter in HeLa cells transfected with HEGO", "assay_type": "cell-based, humain", "details": "10⁻⁷ M ICI 164,384 in the presence of 10⁻⁸ M oestradiol, CAT activity", "procedure": "On a transfecté des cellules Hela avec 50 ng de vecteurs d'expression de Er humain ou de Er de poulet comme indiqué, conjointement avec 1 µg de plasmide \"reporter\" vit-tk-cat, et le plasmide pCH 110 de contrôle interne de l'expression de la béta-galactosidase (3µg) et de l'ADN transporteur (Bluescribe M13+) pour un total de 20 µg d'ADN.\n• A) Des cellules HeLa ont été transfectées avec 10 ng des vecteurs d'expression de l'hER correspondant, HEO (colonnes 1-5), ou HEGO (colonnes 6-10), conjointement avec 1 µG de plasmide \"reporter\" vit-tk-CAT, 3 µG du plasmide de contrôle de la béta-galactosidase pCH110 et avec de l'ADN Bluescribe M13+ pour un total d'ADN de 20 µg. […] 2 heures plus tard on a récolté les cellules […] et un dosage de la béta-galactosidase a été effectué."}
{"smiles": "CCCCN(C)C(=O)CCCCCCCCCC[C@@H]1Cc2cc(O)ccc2[C@H]2CC[C@]3(C)[C@@H](O)CC[C@H]3[C@H]12", "note": "[ICI 164,384]", "values": [{"measurement": "effet sur l'induction à l'oestradiol", "result": "très peu d'effet"}]}
